Among the data in patent publication EP4342530A1, “SORTILIN MODULATORS” (Insusense ApS, priority 2022, dated 2024) are Kd values, retold here.

Assay [1] has as its target T1, Sortilin (Homo sapiens, UniProt Q99523).
T1 construct: purchased Bio-Techne Ltd 3154-ST-050
T1 sequence (Q99523 78-755 limits assumed): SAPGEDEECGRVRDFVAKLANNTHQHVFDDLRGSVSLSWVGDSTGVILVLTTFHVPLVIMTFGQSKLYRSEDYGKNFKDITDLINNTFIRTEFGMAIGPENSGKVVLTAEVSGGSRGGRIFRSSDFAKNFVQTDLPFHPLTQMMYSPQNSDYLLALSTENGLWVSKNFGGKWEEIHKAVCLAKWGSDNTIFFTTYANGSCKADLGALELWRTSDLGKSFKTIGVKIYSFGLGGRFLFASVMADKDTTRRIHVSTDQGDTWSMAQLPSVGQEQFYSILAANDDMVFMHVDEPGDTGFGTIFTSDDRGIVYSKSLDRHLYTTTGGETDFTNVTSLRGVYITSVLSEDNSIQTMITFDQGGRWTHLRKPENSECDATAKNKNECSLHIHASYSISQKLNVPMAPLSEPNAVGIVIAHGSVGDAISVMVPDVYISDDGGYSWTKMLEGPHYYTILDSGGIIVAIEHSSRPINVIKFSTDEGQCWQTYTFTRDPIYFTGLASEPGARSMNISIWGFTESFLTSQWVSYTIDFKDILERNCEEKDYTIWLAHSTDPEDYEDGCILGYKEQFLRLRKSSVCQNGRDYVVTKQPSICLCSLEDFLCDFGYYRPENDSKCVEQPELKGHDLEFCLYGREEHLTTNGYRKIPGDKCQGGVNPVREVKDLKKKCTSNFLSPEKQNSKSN
Briefly: Creoptix (GCI) binding kinetics, human Sortilin. The following applies: Species Human, screened at 1 µM, 25 degrees Celsius. Summed up: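 Grating-coupled interferometry at 25 °C with amine-coupled recombinant human or mouse Sortilin, running buffer HBS-N pH 7.4, 3.4 mM EDTA, 1% DMSO. Compounds injected at 1 µM (1% DMSO) at 100 µl/min, 25 s association, 300 s dissociation; kon, koff and Kd from a 1:1 kinetic model.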

Assay [2] addresses T2, Sortilin (Mus musculus, UniProt Q6PHU5).
T2 construct: purchased Bio-Techne Ltd 2934-ST-050
T2 sequence (Q6PHU5 76-753 limits assumed): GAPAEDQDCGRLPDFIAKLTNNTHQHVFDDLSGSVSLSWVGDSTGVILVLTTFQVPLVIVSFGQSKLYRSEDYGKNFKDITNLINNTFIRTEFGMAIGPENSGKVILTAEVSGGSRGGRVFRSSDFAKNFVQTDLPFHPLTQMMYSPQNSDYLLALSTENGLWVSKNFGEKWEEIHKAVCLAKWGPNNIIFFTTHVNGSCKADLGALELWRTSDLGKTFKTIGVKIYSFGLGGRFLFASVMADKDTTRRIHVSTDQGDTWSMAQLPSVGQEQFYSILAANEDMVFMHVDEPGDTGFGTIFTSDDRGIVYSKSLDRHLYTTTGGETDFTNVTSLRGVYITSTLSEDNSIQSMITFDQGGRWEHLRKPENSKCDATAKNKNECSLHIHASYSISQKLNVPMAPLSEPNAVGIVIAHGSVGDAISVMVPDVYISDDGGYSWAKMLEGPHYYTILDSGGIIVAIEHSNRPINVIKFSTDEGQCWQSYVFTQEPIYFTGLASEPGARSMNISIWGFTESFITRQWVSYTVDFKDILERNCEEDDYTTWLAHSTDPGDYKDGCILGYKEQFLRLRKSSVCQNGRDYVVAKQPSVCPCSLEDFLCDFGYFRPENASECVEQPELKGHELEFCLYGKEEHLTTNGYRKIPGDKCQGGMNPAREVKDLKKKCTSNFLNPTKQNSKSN
Briefly: Creoptix (GCI) binding kinetics, mouse Sortilin. The following applies: Species Mouse, screened at 1 µM, 25 degrees Celsius. As for the experimental part:
Creoptix (GCI) method - using SEQ ID NO.4 (Murine sortillin)
A protein, bound to a surface, is bathed in a solution containing potential ligands giving rise to binding kinetics to generate Kon and Koff rates, as well as a Kd.
All buffers described were filtered using a 0.2µm filter (Product number: 10300461, Nalgene) and degassed for 15 minutes prior to use.
A flow cell temperature of 25 degrees Celsius was used throughout the experiment.
A 4PCH chip was conditioned across all flow cells using 0.2 X concentration running buffer (running buffer composition: 1XHBS-N, pH 7.4, 3.4 mM EDTA, 1% DMSO) using pre-set conditioning wizard (WAVE control software) injecting: 0.1 M borate, 1 M NaCl (pH 9) followed by three start-up injections of 0.2 X running buffer.
A buffer exchange was performed and 1x running buffer (1XHBS-N, pH 7.4, 3.4 mM EDTA, 1% DMSO) used during the immobilisation procedure: An initial injection of EDC/NHS (mixed in 1:1 ratio) was performed across all 4-flow cells to activate the surface for amine coupling of ligands.
Recombinant Sortilin aliquots were thawed quickly by hand and centrifuged at 13,300 rpm for 10 minutes. A 10 µg/ml protein solution was then made in pH 5.0 acetate and injected once for 20 minutes over flow-cells 2, 3 and 4 for human, human (flow cells 2 & 3), and mouse Sortilin respectively followed by a 60 second dissociation period.
A final 7-minute passivation injection of 50 mM tris was used across all flow cells.
A flow rate of 10 µl/min was used for all conditioning and immobilisation cycles.
Compounds were screened at 1 µM using the in-built 'intermediate binders' settings: 100 ul/min, 45 s baseline, 25 s association, 300 s dissociation, with blanks every 5th sample and a DMSO correction (1.5 % DMSO at the start and end of the experiment as well as every 20 cycles. An acquisition rate of 10 Hz was used throughout the experiment.
Compounds were screened at a final assay concentration of 1 µM and a final DMSO concentration was 1 %. To achieve this, compounds were diluted in DMSO from 10 mM stocks to 100 µM (100 x final assay concentration) then diluted 1:100 in running buffer which contained no DMSO to establish a final assay concentration of compound of 1 µM and a final DMSO concentration of 1 % [DMSO].
Compounds and DMSO were mixed by plate shaking at 1000 rpm for 60 seconds using a Bioshake instrument.
A flow rate of 100 µl/min was used throughout the experiment.
Data was evaluated using the RAPID kinetic analysis tool in the GCI WAVE_control software with data fitted using a standard 1:1 kinetic BioModel.

As to `CC(C)(C)CC[C@H](NCc1ccc2c(c1)COCC2)C(=O)O` [Example 3, (S)-2-((isochroman-7-ylmethyl)amino)-5,5-dimethylhexanoic acid], the figures for the Kd on Sortilin [1] (Form of Compound Free acid), at Sortilin [1] (Form of Compound Mesylate salt) and at Sortilin [2] (Form of Compound Free acid) were 237 nM, 52 nM and 65 nM, respectively.
For `C[C@@H](N[C@@H](CCC(C)(C)C)C(=O)O)c1ccc2c(c1)OCCC2` [Example 9], the Kd on Sortilin [1] (Form of Compound Free acid) came out at 227 nM; on Sortilin [1] (Form of Compound Mesylate salt), 64.9 nM; on Sortilin [2] (Form of Compound Free acid), 60 nM; at Sortilin [2] (Form of Compound Mesylate salt) it was 59.5 nM.
As to `C[C@H](N[C@@H](CCC(C)(C)C)C(=O)O)c1ccc2c(c1)CCCO2` [Example 50], the Kd on Sortilin [1] (Form of Compound Free acid) came to 120 nM; on Sortilin [1] (Form of Compound Mesylate salt) it was 221 nM; at Sortilin [2] (Form of Compound Free acid), 258 nM; at Sortilin [2] (Form of Compound Mesylate salt), 258 nM.
In the case of `C[C@@H](N[C@@H](CCC(C)(C)C)C(=O)O)c1ccc2c(c1)CCCO2` [Example 52], the values for the equilibrium dissociation constant (Kd) on Sortilin [1] (Form of Compound Free acid), at Sortilin [1] (Form of Compound Mesylate salt) and at Sortilin [2] (Form of Compound Mesylate salt) were 384 nM, 133 nM and 129 nM, respectively.
